Earlier results, collected in US20130071408A1, “Methods for Diagnosis and Treatment of Non-Insulin Dependent Diabetes Mellitus” (priority 2010, published 2013).

Biological target: CD44 and HA (Homo sapiens, UniProt P16070)
Conditions: cell-based assay; read-out: IC50 value, inhibits the binding of CD44 and HA

Chain of CD44 and HA (P16070 21-742): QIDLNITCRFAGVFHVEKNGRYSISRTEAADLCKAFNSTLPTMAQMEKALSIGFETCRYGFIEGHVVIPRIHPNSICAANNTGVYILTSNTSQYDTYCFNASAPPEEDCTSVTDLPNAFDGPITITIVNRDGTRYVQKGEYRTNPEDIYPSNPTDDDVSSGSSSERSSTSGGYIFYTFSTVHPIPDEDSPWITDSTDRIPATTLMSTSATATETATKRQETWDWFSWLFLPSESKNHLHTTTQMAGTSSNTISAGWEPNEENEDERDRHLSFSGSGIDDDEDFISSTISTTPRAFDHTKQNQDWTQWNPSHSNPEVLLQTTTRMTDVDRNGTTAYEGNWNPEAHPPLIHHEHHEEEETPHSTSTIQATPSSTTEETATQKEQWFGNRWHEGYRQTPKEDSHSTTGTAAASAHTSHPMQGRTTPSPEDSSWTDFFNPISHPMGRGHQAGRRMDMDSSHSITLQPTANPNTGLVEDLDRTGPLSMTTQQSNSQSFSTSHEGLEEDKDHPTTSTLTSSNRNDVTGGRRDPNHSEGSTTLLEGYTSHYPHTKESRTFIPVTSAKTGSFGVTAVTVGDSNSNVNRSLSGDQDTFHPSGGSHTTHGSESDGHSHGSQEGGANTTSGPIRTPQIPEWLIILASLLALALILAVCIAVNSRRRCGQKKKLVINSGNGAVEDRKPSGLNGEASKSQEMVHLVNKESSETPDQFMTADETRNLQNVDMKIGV

IC50: 23.5 µM
SMILES: CCCCCCC(O)CCCC(CCCCCCCCCCCCCC(O)C(=O)O)OC1OCC(O)C(O)C1OC1OCC(OC(C)=O)C(O)C1OC1OC(COC(C)=O)C(O)C(O)C1O (stereo not shown) [F-19848 A]
